Measured values published in publication PMC3328272, “HIV-1 Nef interaction influences the ATP-binding site of the Src-family kinase, Hck” (BMC Chemical Biology, 2012).

Legend:
[1] = molecular target: T1, mHck-TA + Nef-SF2 (Mus musculus, UniProt P08103, Q521E/Q522E/Q523I/T331A); assay: Z'-Lyte in vitro kinase assay, mHck-TA + Nef-SF2; assay type: biochemical; settings: mHck-TA + Nef-SF2, Nef at 10-fold molar excess; read-out: Km, ATP
T1 construct: the N-terminal unique domain was replaced with a hexahistidine tag; hexahistidine (N); made in house; host or cells: Hck: Sf9 insect cells; Nef: E. coli
T1 sequence (P08103 76-524 T331A/Q521E/Q522E/Q523I limits assumed): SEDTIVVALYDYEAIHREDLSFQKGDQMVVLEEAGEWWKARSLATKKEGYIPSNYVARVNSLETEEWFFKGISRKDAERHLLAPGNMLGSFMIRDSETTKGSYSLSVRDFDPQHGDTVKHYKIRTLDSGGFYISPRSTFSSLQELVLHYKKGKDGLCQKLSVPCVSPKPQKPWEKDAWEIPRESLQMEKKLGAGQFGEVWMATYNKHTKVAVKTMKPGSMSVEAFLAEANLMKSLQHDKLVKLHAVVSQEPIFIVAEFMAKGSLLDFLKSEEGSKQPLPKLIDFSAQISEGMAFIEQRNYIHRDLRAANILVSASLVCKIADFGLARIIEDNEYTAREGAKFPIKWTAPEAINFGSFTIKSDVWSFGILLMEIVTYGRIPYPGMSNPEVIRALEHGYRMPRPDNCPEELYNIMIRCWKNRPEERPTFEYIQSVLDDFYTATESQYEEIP
Protocol: (§1) Protein-tyrosine kinase assays were performed using the FRET-based Z'-Lyte kinase assay kit and Tyr-2 peptide substrate according to the manufacturer's instructions (Life Technologies) and our previous work. All assays were performed in quadruplicate in low-volume, non-binding 384-well plates (Corning). […] The Km for ATP was then calculated from a plot of ATP concentration against initial reaction velocity followed by non-linear regression analysis (GraphPad Prism). […] Development reagent was then added to the reaction for an additional 1 h at room temperature, followed by addition of the stop reagent. Fluorescence was assessed at an excitation wavelength of 400 nm; coumarin fluorescence and the fluorescein FRET signal were monitored at 445 and 520 nm, respectively. Reactions run in the absence of ATP served as the 0% phosphorylation control, whereas a stoichiometrically phosphorylated Tyr2 peptide was used as the 100% phosphorylation control. Raw fluorescence values were corrected for background, and reaction endpoints calculated as emission ratios of coumarin fluorescence divided by the fluorescein FRET signal. These ratios were normalized to the ratio obtained with the 100% phosphorylation control peptide. IC50 values were calculated using a sigmoidal curve fit using GraphPad Prism. […]

[2] = molecular target: mHck-TA-HART + Nef-Consensus (Mus musculus, UniProt P08103, A89S/E88T/E93W/H91F/I90P/Q521E/Q522E/Q523I/R92P/T331A); assay: Z'-Lyte in vitro kinase assay, mHck-TA-HART + Nef-Consensus; assay type: biochemical
Chain of mHck-TA-HART + Nef-Consensus (P08103 76-524 E88T/A89S/I90P/H91F/R92P/E93W/T331A/Q521E/Q522E/Q523I): as the sequence (P08103 76-524 T331A/Q521E/Q522E/Q523I limits assumed) above, with E13T, A14S, I15P, H16F, R17P, E18W counted along it
Protocol: as §1

[3] = molecular target: T2, mHck + Nef-SF2 (Mus musculus, UniProt P08103, Q521E/Q522E/Q523I); assay: Z'-Lyte in vitro kinase assay, mHck + Nef-SF2; assay type: biochemical; settings: mHck + Nef-SF2, Nef at 10-fold molar excess; read-out: Km, ATP
T2 construct: the N-terminal unique domain was replaced with a hexahistidine tag; hexahistidine (N); made in house; host or cells: Hck: Sf9 insect cells; Nef: E. coli
T2 sequence (P08103 76-524 Q521E/Q522E/Q523I): as the sequence (P08103 76-524 T331A/Q521E/Q522E/Q523I limits assumed) above, with A256T counted along it
Protocol: as §1

[4] = test system: T3, mHck-HART; assay: Z'-Lyte in vitro kinase assay, mHck-HART alone; assay type: biochemical, mouse; settings: read-out: Km, ATP
T3 construct: the N-terminal unique domain was replaced with a hexahistidine tag; hexahistidine (N); made in house; host or cells: Sf9 insect cells (baculovirus)
Protocol: as §1

[5] = molecular target: T4, mHck-TA (Mus musculus, UniProt P08103, Q521E/Q522E/Q523I/T331A); assay: Z'-Lyte in vitro kinase assay, mHck-TA alone; assay type: biochemical; settings: read-out: Km, ATP
T4 construct: the N-terminal unique domain was replaced with a hexahistidine tag; hexahistidine (N); made in house; host or cells: Sf9 insect cells (baculovirus)
T4 sequence (P08103 76-524 T331A/Q521E/Q522E/Q523I limits assumed): as the sequence (P08103 76-524 T331A/Q521E/Q522E/Q523I limits assumed) above
Protocol: as §1

[6] = molecular target: T5, mHck-TA-HART + Nef-SF2 (Mus musculus, UniProt P08103, A89S/E88T/E93W/H91F/I90P/Q521E/Q522E/Q523I/R92P/T331A); assay type: biochemical
T5 construct: the N-terminal unique domain was replaced with a hexahistidine tag; hexahistidine (N); made in house; host or cells: Hck: Sf9 insect cells; Nef: E. coli
T5 sequence (P08103 whole entry E88T/A89S/I90P/H91F/R92P/E93W/T331A/Q521E/Q522E/Q523I, looked up, the tested form may be a part): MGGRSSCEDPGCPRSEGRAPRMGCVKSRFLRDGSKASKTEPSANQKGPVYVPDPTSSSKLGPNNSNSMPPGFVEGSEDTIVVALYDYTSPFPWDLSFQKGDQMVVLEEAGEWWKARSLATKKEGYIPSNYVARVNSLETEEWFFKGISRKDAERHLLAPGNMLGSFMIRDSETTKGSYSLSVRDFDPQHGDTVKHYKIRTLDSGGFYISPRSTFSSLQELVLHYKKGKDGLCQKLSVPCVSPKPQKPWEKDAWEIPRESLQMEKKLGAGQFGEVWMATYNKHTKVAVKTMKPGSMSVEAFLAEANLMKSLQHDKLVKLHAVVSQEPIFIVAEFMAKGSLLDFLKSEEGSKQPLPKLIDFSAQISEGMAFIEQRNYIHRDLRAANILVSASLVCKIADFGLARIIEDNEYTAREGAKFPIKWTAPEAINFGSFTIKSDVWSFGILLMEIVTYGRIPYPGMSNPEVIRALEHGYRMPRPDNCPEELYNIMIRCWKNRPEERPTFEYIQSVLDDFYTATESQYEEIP
Protocol: Protein-tyrosine kinase assays were performed using the FRET-based Z'-Lyte kinase assay kit and Tyr-2 peptide substrate according to the manufacturer's instructions (Life Technologies) and our previous work. All assays were performed in quadruplicate in low-volume, non-binding 384-well plates (Corning). […] The Km for ATP was then calculated from a plot of ATP concentration against initial reaction velocity followed by non-linear regression analysis (GraphPad Prism). […] Development reagent was then added to the reaction for an additional 1 h at room temperature, followed by addition of the stop reagent. Fluorescence was assessed at an excitation wavelength of 400 nm; coumarin fluorescence and the fluorescein FRET signal were monitored at 445 and 520 nm, respectively. Reactions run in the absence of ATP served as the 0% phosphorylation control, whereas a stoichiometrically phosphorylated Tyr2 peptide was used as the 100% phosphorylation control. Raw fluorescence values were corrected for background, and reaction endpoints calculated as emission ratios of coumarin fluorescence divided by the fluorescein FRET signal. These ratios were normalized to the ratio obtained with the 100% phosphorylation control peptide. IC50 values were calculated using a sigmoidal curve fit using GraphPad Prism. Additional details of the Z'-Lyte assay principle and calculation of percent inhibition has been described elsewhere.

[7] = molecular target: T6, mHck-TA + Nef-Consensus (Mus musculus, UniProt P08103, Q521E/Q522E/Q523I/T331A); assay: Z'-Lyte in vitro kinase assay, mHck-TA + Nef-Consensus; assay type: biochemical; settings: Nef at 10-fold molar excess, read-out: Km, ATP
T6 construct: the N-terminal unique domain was replaced with a hexahistidine tag; hexahistidine (N); made in house; host or cells: Hck: Sf9 insect cells; Nef: E. coli
T6 sequence (P08103 76-524 T331A/Q521E/Q522E/Q523I limits assumed): as the sequence (P08103 76-524 T331A/Q521E/Q522E/Q523I limits assumed) above
Protocol: as §1

[8] = molecular target: T7, mHck-TA-HART (Mus musculus, UniProt P08103, A89S/E88T/E93W/H91F/I90P/Q521E/Q522E/Q523I/R92P/T331A); assay: Z'-Lyte in vitro kinase assay, mHck-TA-HART alone; assay type: biochemical; settings: read-out: Km, ATP
T7 construct: the N-terminal unique domain was replaced with a hexahistidine tag; hexahistidine (N); made in house; host or cells: Sf9 insect cells (baculovirus)
T7 sequence (P08103 76-524 E88T/A89S/I90P/H91F/R92P/E93W/T331A/Q521E/Q522E/Q523I): as the sequence (P08103 76-524 T331A/Q521E/Q522E/Q523I limits assumed) above, with E13T, A14S, I15P, H16F, R17P, E18W counted along it
Protocol: as §1

[9] = molecular target: T8, mHck (Mus musculus, UniProt P08103, Q521E/Q522E/Q523I); assay: Z'-Lyte in vitro kinase assay, mHck alone; assay type: biochemical; settings: read-out: Km, ATP
T8 construct: the N-terminal unique domain was replaced with a hexahistidine tag; hexahistidine (N); made in house; host or cells: Sf9 insect cells (baculovirus)
T8 sequence (P08103 76-524 Q521E/Q522E/Q523I): as the sequence (P08103 76-524 T331A/Q521E/Q522E/Q523I limits assumed) above, with A256T counted along it
Protocol: as §1

[10] = test system: T9, mHck-HART + Nef-SF2; assay: Z'-Lyte in vitro kinase assay, mHck-HART + Nef-SF2; assay type: biochemical, mouse; settings: mHck-HART + Nef-SF2, Nef at 10-fold molar excess; read-out: Km, ATP
T9 construct: the N-terminal unique domain was replaced with a hexahistidine tag; hexahistidine (N); made in house; host or cells: Hck: Sf9 insect cells; Nef: E. coli
Protocol: as §1

[11] = molecular target: T10, Human Hck SH3 (Homo sapiens, UniProt P08631); assay: Surface plasmon resonance (SPR), Nef binding to immobilized SH3 domain; settings: 1:1 Langmuir model
T10 construct: made in house; host or cells: E. coli BL21(DE3)pLysS
T10 sequence (P08631 78-138 limits assumed): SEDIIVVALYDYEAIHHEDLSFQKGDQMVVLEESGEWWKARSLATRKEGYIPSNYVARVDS
Protocol: (§2) Recombinant Hck SH3 domain proteins were exchanged into HBS-EP buffer (10 mM HEPES, pH 7.4, 150 mM NaCl, 3 mM EDTA, 0.05% v/v P20 surfactant) and concentrated with an Amicon Ultra 15 ml 3 kDa molecular weight cutoff spin concentrator. Primary untagged Nef proteins were exchanged into HBS-EPD buffer (10 mM HEPES, pH 7.4, 150 mM NaCl, 3 mM EDTA, 0.05% v/v P20 surfactant, 1 mM DTT) and concentrated with an Amicon Ultra 15 ml 10 kDa molecular weight cutoff spin concentrator. SPR analysis was performed on a BIAcore 3000 instrument (GE Healthcare) using a four-channel CM5 biosensor chip with the Hck SH3 domains covalently attached as ligand via standard amine coupling chemistry. […] The initial binding reaction was followed by dissociation for 5 min, and the chip surface was regenerated using HBS-EPD buffer at a flow rate of 30 μl/min for 10 min. Binding curves recorded at each analyte concentration were assessed in triplicate, corrected for buffer effects, and fit to a 1:1 Langmuir binding model using the BIAevaluation 4.1 software suite (GE Healthcare).

[12] = molecular target: T11, Mouse Hck HART (Mus musculus, UniProt P08103, A89S/E88T/E93W/H91F/I90P/R92P); assay: as above
T11 construct: made in house; host or cells: E. coli BL21(DE3)pLysS
T11 sequence (P08103 76-136 E88T/A89S/I90P/H91F/R92P/E93W limits assumed): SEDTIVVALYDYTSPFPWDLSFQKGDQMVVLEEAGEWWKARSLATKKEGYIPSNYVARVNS
Protocol: as §2

[13] = molecular target: T12, Mouse Hck SH3 (Mus musculus, UniProt P08103); assay: as above; settings: 1:1 Langmuir model
T12 construct: made in house; host or cells: E. coli BL21(DE3)pLysS
T12 sequence (P08103 76-136 limits assumed): as the sequence (P08103 76-136 E88T/A89S/I90P/H91F/R92P/E93W limits assumed) above, with T13E, S14A, P15I, F16H, P17R, W18E counted along it
Protocol: as §2

[14] = molecular target: similarly modified Hck SH3 domain; settings: ITC; read-out: interaction (KD) with a similarly modified Hck SH3 domain via ITC; cited from earlier work
[15] = molecular target: T4, mHck-TA; assay: Nef-induced kinase activation over kinase:Nef ratios (Z'-Lyte); assay type: biochemical
Protocol: as §1, with “Reactions run in the absence of ATP served as the 0% phosphorylation control, whereas a stoichiometrically phosphorylated Tyr2 peptide was used as the 100% phosphorylation control.” left out, “These ratios were normalized to the ratio obtained with the 100% phosphorylation control peptide.” left out
(§3) To determine the impact of the SH3-HART modification in the context of near full-length Hck, we next introduced the HART coding sequence into mHck-TA. […] This observation fits with the smaller enhancement in SH3-HART binding to Nef-Consensus as determined by SPR. […]

[16] = molecular target: T7, mHck-TA-HART; assay: as above; assay type: biochemical
Protocol: as §1, with “Reactions run in the absence of ATP served as the 0% phosphorylation control, whereas a stoichiometrically phosphorylated Tyr2 peptide was used as the 100% phosphorylation control.” left out, “These ratios were normalized to the ratio obtained with the 100% phosphorylation control peptide.” left out
as §3

[17] = mHck-TA-HART with Nef-SF2 vs alone
[18] = HART vs wild-type mouse SH3 domain
[19] = Mouse Hck HART SH3 immobilized, 1:1 Langmuir model

## Nc1ncnc2c1ncn2[C@@H]1O[C@H](COP(=O)(O)OP(=O)(O)OP(=O)(O)O)[C@@H](O)[C@H]1O [ATP]
[1]
  Km: 68 ± 10.7 µM
[2]; mHck-TA-HART + Nef-Consensus, Nef at 10-fold molar excess, read-out: Km, ATP
  Km: 76 ± 23.1 µM
[2]; mHck-TA-HART with Nef-Consensus vs alone
  reduction of the Km for ATP in the presence of Nef: ~ 2.5 fold
[3]
  Km: 14.8 ± 1.4 µM
[4]
  Km: 105 ± 29 µM
[5]
  Km: 62 ± 12.6 µM
[6]; mHck-TA-HART + Nef-SF2, Nef at 10-fold molar excess, read-out: Km, ATP
  Km: 69 ± 17.6 µM
[6]; [17]
  reduction of the Km for ATP in the presence of Nef: ~ 2.5 fold
[7]
  Km: 84 ± 3.5 µM
[8]
  Km: 181 ± 28.7 µM
[9]
  Km: 12.1 ± 2 µM
[10]
  Km: 49.3 ± 5.8 µM

## CC(C)(C)n1nc(-c2cccc3ccccc23)c2c(N)ncnc21 [NaPP1, reference compound]
[6]; [17]
  increase in sensitivity to inhibition by NaPP1 in the presence of Nef: more than three-fold

## Nef-SF2: recombinant HIV-1 Nef protein, B-clade allele SF2, expressed in E. coli
[11]
  Kd: 70 ± 10 nM
  ka: 1.60 ± 0.06 M^-1s^-1 × 10^5
  kd: 1.18 ± 0.04 s^-1 × 10^-2
[12]; [18]
  enhancement of affinity by introduction of the HART sequence: 13 fold
  increase in the association rate constant with SH3-HART: 2.5 fold
[12]; HART vs wild-type mouse SH3 domain, decrease for Nef-SF2, essentially unchanged for Nef-Consensus
  change in the dissociation rate constant with SH3-HART: ~5 fold
[12]; [19]
  Kd: 10 nM
  ka: 14.20 ± 1.40 M^-1s^-1 × 10^5
  kd: 1.43 ± 0.01 s^-1 × 10^-2
[13]
  Kd: 130 ± 30 nM
  ka: 5.54 ± 1.77 M^-1s^-1 × 10^5
  kd: 7.00 ± 0.36 s^-1 × 10^-2
[14]
  Kd: 12 nM
[15]
  excess of Nef required for full activation: 5 fold
[16]
  kinase:Nef ratio at maximal activation: 1 to 1
